The source of these data is US12290513B2, “Therapeutic methods and compositions for treating movement disorders” (Vima Therapeutics, Inc., priority 2023, dated 2025).

Data set [1] is described as follows: Hepatocyte stability, rat. How it is done: (§1) • 1. 10 mM stock solutions of test compounds and positive control compound were prepared in appropriate solvent (DMSO). • 2. In separate conical tubes, 10 mM test compound and positive controls were diluted to 100 μM by combining 198 μL of 50% acetonitrile/50% water and 2 μL of 10 mM stock. Preparation of Hepatocytes • 1. Incubation medium (William's E Medium supplemented with GlutaMAX) and hepatocyte thawing medium were placed in a 37C water bath and warmed for at least 15 minutes prior to use. • 2. A vial of cryopreserved hepatocytes was thawed by placing the vial in a 37C water bath and gently shaken for 2 minutes. After thawing was completed, the vial was cleaned with 70% ethanol and transferred to a biosafety cabinet. • 3. Using wide-bore pipette tips, hepatocytes were transferred into a 50 mL conical tube containing thawing medium. The 50 mL conical tube was placed into a centrifuge and spun at 100 g for 10 minutes. […] Using AO/PI Staining, cells were counted to determine the viable cell density. Cells were diluted with incubation medium to a working cell density of 0.5×10^6 viable cells/mL. Procedure for Stability Determination • 1. 198 μL of hepatocytes were pipetted into each well of a 96-well non-coated plate. The plate was placed in the incubator to allow the hepatocytes to warm for 10 minutes. • 2. 2 μL of the 100 μM test compound or positive control was pipetted into respective wells of the 96-well non-coated plate to start the reaction. The plate was returned to the incubator for the designed time points. • 3. The contents of the wells were removed in 25 μL aliquots at time points of 0.5, 15, 30, 60, 90 and 120 minutes. The aliquots were then mixed with 6 volumes (150 μL) of acetonitrile containing an internal standard, IS (100 nM alprazolam, 200 nM caffeine and 100 nM tolbutamide), to terminate the reaction. Samples were vortexed for 5 minutes and centrifuged for 45 minutes at 3,220 g. Aliquots of 100 μL of supernatant were diluted with 100 μL ultra-pure water, and the mixture was used for LC/MS/MS analysis. All incubations were performed in duplicate. Data Analysis
(§2) All calculations were carried out using Microsoft Excel and according to standard analysis methods that are known in the art.

A short description of data set [2]: Whole blood stability, human. How it is done:
Procedures for blood Stability. • A. 398 μL of blood from each species was added to an incubation plate, which was pre-warmed at 37C for 15 minutes. • B. After the pre-incubation, 2 μL of working solution (test compounds or control compounds) was spiked to 398 μL of blood to reach a final concentration of 1 μM for test compounds and 5 μM for control compounds. The final concentration of organic solvents is 0.5%. The assays were performed in duplicate. • C. The reaction samples were incubated at 37C. • D. Aliquots of 50 μL were taken from the reaction samples at 0, 15, 30, 60 and 120 minutes. The reaction was stopped by the addition of 50 μL ultrapure water and 400 μL cold acetonitrile. • E. All samples were vortexed for 10 minutes, followed by centrifugation at 3,220 g for 40 minutes to precipitate proteins. 100 μL of the supernatant was then transferred to a new plate. The supernatant was diluted with ultrapure water as needed for detection by LC-MS/MS. Sample Analysis
Samples were analyzed by LC-MS/MS to measure the concentration of the test compounds.
as §2

Data set [3] has as its system Cerep87 Safety Panel receptors. Description: Cerep87 Safety Panel (Eurofins), whole panel statements. It counts as binding.
A short description of data set [4]: Hepatocyte stability, human. How it is done: as §1, §2
A short description of data set [5]: Hepatocyte stability, dog. How it is done: as §1, §2
How the values of data set [6] were obtained:
The resulting metabolites were analyzed by liquid chromatography-mass spectrometry, and metabolite peaks were detected and measured.

In data set [7] the target is D2L (h) (antagonist radioligand) (Homo sapiens, UniProt P14416). The note with it: at the tested concentration; negative values set to zero.
The nature of the next data set: in vitro. As to conditions: mouse, liver microsomes. (In general: Liver microsomes are vesicles of endoplasmic reticulum, rich in cytochrome P450 enzymes.)
The target of a further data set is CYP2C19 (Homo sapiens, UniProt P33261). As to the kind of experiment: Incubation with recombinant CYP2C19.
Data set [8] has as its system haloperidol-induced catalepsy. Description: Haloperidol-induced catalepsy (bar test). The note with it: for time spent holding bar, haloperidol-induced catalepsy: rats, haloperidol 1 mg/kg sc, Rac-THP 10, 20, 30 mg/kg, R-THP or S-THP 5, 10, 15 mg/kg ip. The data set is classed as in vivo, Sprague Dawley rats. How it is done: Animals: Adult male Sprague Dawley rats (230-235 g) from Envigo were used in this study. Upon receipt, rats were group housed in ventilated cages and acclimated for one week prior to testing.
The front paws of a rat were placed then on a horizontal metal bar raised 6″ above a Plexiglas platform. Each rat underwent 3 trials of 60 seconds each. The test ended when the animal's front paws return to the platform or after 60 seconds. Rats were tested at 30 and 60 minutes after treatment.
Data were analyzed by one-way analysis of variance (ANOVA) followed by Tukey's post-hoc comparisons, where appropriate. Data are represented as mean and standard error to the mean (SEM).

Another data set addresses T1, CYP2B6 (Homo sapiens, UniProt P20813).
T1 sequence (P20813 1-491): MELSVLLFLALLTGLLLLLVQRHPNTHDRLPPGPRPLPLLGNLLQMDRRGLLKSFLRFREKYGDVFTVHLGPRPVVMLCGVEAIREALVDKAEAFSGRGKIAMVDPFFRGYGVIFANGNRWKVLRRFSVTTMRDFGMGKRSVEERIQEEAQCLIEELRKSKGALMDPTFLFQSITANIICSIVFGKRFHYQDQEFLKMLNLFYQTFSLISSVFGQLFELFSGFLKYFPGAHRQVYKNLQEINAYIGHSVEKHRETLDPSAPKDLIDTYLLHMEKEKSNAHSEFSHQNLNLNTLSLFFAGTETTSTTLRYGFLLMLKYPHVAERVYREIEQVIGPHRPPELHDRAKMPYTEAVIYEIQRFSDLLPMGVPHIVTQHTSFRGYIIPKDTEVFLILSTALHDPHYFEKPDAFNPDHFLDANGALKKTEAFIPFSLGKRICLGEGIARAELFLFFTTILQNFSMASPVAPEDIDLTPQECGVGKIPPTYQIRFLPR
Description: Incubation with recombinant CYP2B6. As to conditions: for t1/2: unit not given.

The next data set has as its target CYP3A4 (Homo sapiens, UniProt P08684). Description: Incubation with recombinant CYP3A4.

Where two headings read alike, the source gives them in different places.

Chain of CYP3A4 (P08684 whole entry): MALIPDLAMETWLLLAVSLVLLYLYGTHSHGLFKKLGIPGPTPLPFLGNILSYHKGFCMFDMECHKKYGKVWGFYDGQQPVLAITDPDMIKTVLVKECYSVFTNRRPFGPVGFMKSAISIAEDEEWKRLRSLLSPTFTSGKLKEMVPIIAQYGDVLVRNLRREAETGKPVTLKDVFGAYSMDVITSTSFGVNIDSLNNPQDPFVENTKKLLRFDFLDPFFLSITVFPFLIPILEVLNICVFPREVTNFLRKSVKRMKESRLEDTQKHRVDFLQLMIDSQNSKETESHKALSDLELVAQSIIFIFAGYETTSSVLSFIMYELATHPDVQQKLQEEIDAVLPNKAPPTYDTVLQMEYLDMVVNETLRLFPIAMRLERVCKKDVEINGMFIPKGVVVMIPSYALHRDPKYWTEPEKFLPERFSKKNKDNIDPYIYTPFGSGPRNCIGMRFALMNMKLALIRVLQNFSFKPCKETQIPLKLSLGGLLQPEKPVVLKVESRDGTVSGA
Chain of CYP2C19 (P33261 whole entry): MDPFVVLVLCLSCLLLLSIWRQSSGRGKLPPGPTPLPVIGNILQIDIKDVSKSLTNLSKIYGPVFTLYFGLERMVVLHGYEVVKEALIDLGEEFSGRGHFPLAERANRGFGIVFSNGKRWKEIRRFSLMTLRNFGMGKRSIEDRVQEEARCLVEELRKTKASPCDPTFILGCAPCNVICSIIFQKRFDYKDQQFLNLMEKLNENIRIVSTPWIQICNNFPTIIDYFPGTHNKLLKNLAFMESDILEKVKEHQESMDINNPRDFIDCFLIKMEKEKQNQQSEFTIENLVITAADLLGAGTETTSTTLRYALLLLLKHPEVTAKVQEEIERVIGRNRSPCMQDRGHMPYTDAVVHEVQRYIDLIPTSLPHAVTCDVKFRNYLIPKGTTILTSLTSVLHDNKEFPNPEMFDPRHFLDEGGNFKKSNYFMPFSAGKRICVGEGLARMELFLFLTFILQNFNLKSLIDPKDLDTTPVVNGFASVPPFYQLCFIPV
Chain of D2L (h) (antagonist radioligand) (P14416 whole entry): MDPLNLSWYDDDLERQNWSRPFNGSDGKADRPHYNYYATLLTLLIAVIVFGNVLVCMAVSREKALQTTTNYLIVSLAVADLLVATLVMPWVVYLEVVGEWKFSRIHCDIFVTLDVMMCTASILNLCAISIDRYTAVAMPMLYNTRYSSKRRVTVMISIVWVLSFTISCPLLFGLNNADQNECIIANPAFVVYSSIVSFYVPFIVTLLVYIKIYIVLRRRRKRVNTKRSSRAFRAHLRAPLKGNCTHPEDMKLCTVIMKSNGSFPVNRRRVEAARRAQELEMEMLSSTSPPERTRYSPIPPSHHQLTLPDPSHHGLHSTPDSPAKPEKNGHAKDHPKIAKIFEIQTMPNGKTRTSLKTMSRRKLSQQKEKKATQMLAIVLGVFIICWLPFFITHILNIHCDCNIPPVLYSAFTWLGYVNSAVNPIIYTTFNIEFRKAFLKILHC

Turning to `C[C@@H](C[N+](C)(C)C)OC(N)=O.[Cl-]` [(S)-BTC, (S)-bethanechol], the “Predicted Hepatic CLH” value in data set [1] (hepatocytes), in data set [4] (hepatocytes) and in data set [5] (hepatocytes) was 0 mL/min/kg throughout. Besides, the “in vitro t1/2” value in [1] (hepatocytes), in data set [4] (hepatocytes) and in data set [5] (hepatocytes) was “∞” throughout. Also, the “Remaining Percentages (%) 0 min” value in data set [2] (human whole blood, 37C) was 100.00%. Besides, the t1/2 result in data set [2] (human, blood) is “∞”. Besides, in data set [3] (only muscarinic receptors), the “antagonism at muscarinic receptors of the panel” value is on record as “greater than 50%”.

In [1] (cryopreserved hepatocytes), `O[C@@](CCN1CCCCC1)(c1ccccc1)C1CCCCC1` [(R)-THP, (R)-trihexyphenidyl] showed a CLint scaled at 1 μM of 4420 mL/min/kg, a half-life at 1 μM of 1.47 min and a hepatocyte CLint at 1 μM of 945 µL/min/1e6 cells. In addition, the metabolites detected entry in data set [6] is “no (R)-THP metabolites were present at a significant level above parent molecule”. For the same compound, in data set [2] (human whole blood, 37C), the “Remaining Percentages (%) 0 min” value worked out at 100.00% and the t1/2 entry is on record as “∞”. For the same compound, the “signal, D2L (h) (antagonist radioligand)” value in data set [7] worked out at 0.32%. In “in vitro”, this compound registered a CLint scaled of 2030 mL/min/kg, a half-life at 1 μM of 2.82 min and a microsomal CLint at 1 μM of 492 µL/min/mg. In addition, in data set [4] (cryopreserved hepatocytes), the CLint scaled at 1 μM was found to be 55.7 mL/min/kg, the half-life at 1 μM is 63.3 min and the hepatocyte CLint at 1 μM amounted to 21.9 µL/min/1e6 cells. Moreover, the “Substrates of CYP2C19” value at CYP2C19 is “Rac, R and S”. Also, the “time spent holding bar, haloperidol-induced catalepsy” value (“time spent holding bar” for short) in [8] (30 minutes after injection) was “significantly attenuated haloperidol-induced catalepsy”. Moreover, in data set [8] (60 minutes after injection), the “time spent holding bar” value is recorded as “significantly attenuated haloperidol-induced catalepsy”. In addition, in data set [8] (catalepsy control, FIG. 6), the “Efficacy of R-THP versus Rac-THP over a dosage range” value is “half a dose of R-THP controls catalepsy at least as effectively as a full dose of Rac-THP”. For the same compound, at CYP2B6, the CLint is 0.00 µL/min/pmol and the t1/2 entry is listed as “∞”. In addition, in [5] (cryopreserved hepatocytes), the CLint scaled at 1 μM was 187 mL/min/kg, the half-life at 1 μM worked out at 40.2 min and the hepatocyte CLint at 1 μM was found to be 34.5 µL/min/1e6 cells. In addition, on CYP3A4, the “Substrates of CYP3A4” value is “Rac, R and S”. Besides, the half-life on CYP3A4 (human) worked out at 30.7 min.

Turning to `O[C@](CCN1CCCCC1)(c1ccccc1)C1CCCCC1` [(S)-THP, (S)-trihexyphenidyl], the metabolites detected entry in [6] (human) is “two metabolites 18 and 19 were detected at substantial levels”. Also, in data set [7], the “signal, D2L (h) (antagonist radioligand)” value is given as 28.50%. Further, in data set [3] (greater than 25% signal), the “non-muscarinic receptors signaled through” value is given as “nine”. Besides, in “in vitro”, the CLint scaled worked out at 1030 mL/min/kg, the half-life at 1 μM worked out at 5.56 min and the microsomal CLint at 1 μM turned out to be 249 µL/min/mg. On CYP2C19, the “Substrates of CYP2C19” value was “Rac, R and S”. For the same compound, the “time spent holding bar” value in data set [8] (30 minutes after injection) is “did not significantly differ from those of haloperidol-treated rats”. Further, the “time spent holding bar” value in [8] (60 minutes after injection) was “no significant differences”. Also, on CYP2B6, the CLint is 0.00 µL/min/pmol and the t1/2 result is reported as “∞”. Further, the “Substrates of CYP3A4” value on CYP3A4 was “Rac, R and S”.

As a reminder, the CLint scaled is the capacity of the preparation to metabolise the compound, expressed as a volume cleared per time. The term half-life denotes the time in which the quantity being followed falls by half. The term hepatocyte CLint denotes the rate of metabolic loss divided by the concentration. Broadly, the microsomal CLint is the rate of metabolic loss divided by the concentration.
